Reference: patent US20150086490A1, “ORAL CARE COMPOSITIONS AND METHODS” (Colgate-Palmolive Company, priority 2009, published 2015)

System: MMP-13 gene expression
Assay: PTH stimulated MMP-13 gene expression in UMR 106-01 cells, real time quantitative RT-PCR
Type: cell-based, rat
Settings: for effect on PTH stimulated MMP-13 gene expression (in words): summary of the table's results
Method: Parathyroid hormone (PTH) stimulates the transcription of MMP-13. The experimental method utilizes PTH to stimulate MMP-13 transcription in UMR 106-01 cells, which are cells derived from a rat osteoblastic cell line. The UMR 106-01 cell line provides useful model system for studying effects of PTH on osteoblasts in vitro. See, e.g., Qin, L. et al. Journal of Biological Chemistry, 278(22), 19723 (2003).
The UMR 106-01 cells were cultured in Eagle's minimal essential medium (EMEM) supplemented with 25 mM Hepes 7.4, 1% nonessential amino acids, 100 units/ml penicillin, 100 μg/ml streptomycin and 5% fetal bovine serum.
UMR 106-01 cells were seeded in 12-well plates and cultured for 2-3 days in cell culture media. When cells were confluent, the cell culture media was changed to 1% fetal bovine serum (not 5% fetal bovine sertn) for overnight cell starvation. The cells were preincubated with active ingredient for 15 min and then incubated with PTH (10^−8 M) for 4 hours.
Total RNA from UMR 106-01 cells stimulated with or without PTH was isolated with TRIzol reagent. Total RNA (0.1 μg) was reverse-transcribed to cDNA with the Invitrogen Superscript kit according to the manufacturer's instructions. PCR was performed on cDNA using primers, and the sequences used are listed below. All were amplified by adding 2.5 μl of cDNA to the PCR mixture (22.5 μl) containing each primer (0.2 μM) and 12.5 μl of the Platinum SYBR Green qPCR SuperMix UDG (Invitrogen). The reactions were pre-incubated at 50° C. for 2 minutes for decontamination of dU-containing DNA by UDG, then at 95° C. for 2 minutes to inactivate UDG and activate Taq. The PCR program continued for 49 cycles of denaturation at 95° C. for 15 seconds, annealing and elongation of the primers at 60° C. for 30 seconds. Relative quantification of gene expression was determined by using the 2-delta delta CT method where fold changes in gene expression are relative to control samples. All samples were normalized to β-actin.

[1] = PTH (10^−8 M, 4 hours) + active 10 ppm (15 min preincubation)
[2] = active alone (no PTH), 10 ppm in simple solution

Structure (SMILES)	fold change in MMP-13 gene expression relative to the control sample, Average (PTH (10^−8 M, 4 hours) + active 7 ppm (15 min preincubation)) [fold]	fold change in MMP-13 gene expression relative to the control sample, Average (active alone (no PTH), 7 ppm in simple solution) [fold]	effect on PTH stimulated MMP-13 gene expression (in words)	fold change in MMP-13 gene expression relative to the control sample, Average [1] [fold]	fold change in MMP-13 gene expression relative to the control sample, Average [2] [fold]	fold change in MMP-13 gene expression relative to the control sample, Average (PTH (10^−8 M, 4 hours) + active 0.1 ppm (15 min preincubation)) [fold]	fold change in MMP-13 gene expression relative to the control sample, Average (PTH (10^−8 M, 4 hours) + active 1 ppm (15 min preincubation)) [fold]	fold change in MMP-13 gene expression relative to the control sample, Average (PTH (10^−8 M, 4 hours) + active 50 ppm (15 min preincubation)) [fold]	fold change in MMP-13 gene expression relative to the control sample, Average (PTH (10^−8 M, 4 hours) + active 100 ppm (15 min preincubation)) [fold]	fold change in MMP-13 gene expression relative to the control sample, Average (active alone (no PTH), 0.1 ppm in simple solution) [fold]	fold change in MMP-13 gene expression relative to the control sample, Average (active alone (no PTH), 1 ppm in simple solution) [fold]	fold change in MMP-13 gene expression relative to the control sample, Average (active alone (no PTH), 50 ppm in simple solution) [fold]	fold change in MMP-13 gene expression relative to the control sample, Average (active alone (no PTH), 100 ppm in simple solution) [fold]
CC1CCC(C(C)C)C(OC(=O)Nc2ccccc2O)C1 (centres unmarked) [Compound A, 2-isopropyl-5-methylcyclohexyl 2-hydroxyphenylcarbantate]	14.674	7.41	decreases the expression										
CC(=O)O[C@@H]1CC[C@@]2(C)[C@@H](CC[C@]3(C)[C@@H]2C(=O)C=C2[C@@H]4[C@@H](C)[C@H](C)CC[C@]4(C)CC[C@]23C)[C@@]1(C)C(=O)O [AKBBA, Acetyl keto β-boswellic acid]			decreases the expression	59.77	1.45								
Oc1ccc(C=Cc2cc(O)cc(O)c2)cc1 [Resveratrol, 3,5,4′-trihydroxystilbene]			decreases the expression	1.86	0.65	46.02	19.97	0.91	0.65	1.07	0.71	0.38	1.09
CC(=O)Nc1ccc(OC(=O)OC2CC(C)CCC2C(C)C)cc1 (centres unmarked) [Compound B, 4-acetamidophenyl 2-isopropyl-5-methylcyclohexyl carbonate]			decreases the expression	49.86	5.78								
